Reference: patent US6207683A, “Benzocycloheptathiophene compounds” (Bridge Pharma, Inc., priority 1999, dated 2001)
Structures can show the parent of a compound that is named as a salt. Where two headings read alike, the source gives them in different places.

Columns and labels:
[1] = biological target: T1, histamine H1 -receptors (membranes from bovine cerebellum) (Bos taurus, UniProt P30546); test: [^3 H]pyrilamine binding assay, histamine H1-receptors
T1 construct: membranes from bovine cerebellum; from tissue; host or cells: bovine cerebellum membranes
T1 sequence (P30546 whole entry): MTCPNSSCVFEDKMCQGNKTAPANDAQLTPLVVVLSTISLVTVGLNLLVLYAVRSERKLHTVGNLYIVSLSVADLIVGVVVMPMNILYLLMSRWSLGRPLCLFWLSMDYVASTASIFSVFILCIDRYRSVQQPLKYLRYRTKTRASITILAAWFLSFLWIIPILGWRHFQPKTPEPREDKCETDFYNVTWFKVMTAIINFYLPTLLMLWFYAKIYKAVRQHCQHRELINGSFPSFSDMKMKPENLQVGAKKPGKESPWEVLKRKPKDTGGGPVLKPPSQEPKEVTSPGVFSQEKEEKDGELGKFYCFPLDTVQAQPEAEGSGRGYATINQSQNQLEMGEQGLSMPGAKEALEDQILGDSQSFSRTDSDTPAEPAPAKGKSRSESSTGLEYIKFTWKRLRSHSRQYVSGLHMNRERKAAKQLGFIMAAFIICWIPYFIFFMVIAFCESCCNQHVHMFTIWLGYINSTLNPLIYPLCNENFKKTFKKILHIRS
Protocol: 1. Binding to histaminergic receptors
The affinities of the test compounds for histamine H1 -receptors were assessed using the [^3 H]pyrilamine binding assay, modified after Chang et al. Heterogeneity of Histamine H1 -Receptors. J. Neurochem. 1979, 32: 1653-1663 Briefly, membranes from bovine cerebellum were incubated with [^3 H]pyrilamine and the test compound at increasing concentrations. The specific binding of the radioactive ligand to the receptor was defined as the difference between total binding and nonspecific binding, determined in the presence of an excess of unlabelled ligand. IC50 values (concentration required to inhibit 50% of specific binding of [^3 H]pyrilamine) were determined by non linear regression analysis of the competition curves.

[2] = biological target: T2, muscarinic M1 -receptors (bovine striatal membranes) (Bos taurus, UniProt F1N5C5); test: biochemical; assay type: binding
T2 sequence (F1N5C5 1-460): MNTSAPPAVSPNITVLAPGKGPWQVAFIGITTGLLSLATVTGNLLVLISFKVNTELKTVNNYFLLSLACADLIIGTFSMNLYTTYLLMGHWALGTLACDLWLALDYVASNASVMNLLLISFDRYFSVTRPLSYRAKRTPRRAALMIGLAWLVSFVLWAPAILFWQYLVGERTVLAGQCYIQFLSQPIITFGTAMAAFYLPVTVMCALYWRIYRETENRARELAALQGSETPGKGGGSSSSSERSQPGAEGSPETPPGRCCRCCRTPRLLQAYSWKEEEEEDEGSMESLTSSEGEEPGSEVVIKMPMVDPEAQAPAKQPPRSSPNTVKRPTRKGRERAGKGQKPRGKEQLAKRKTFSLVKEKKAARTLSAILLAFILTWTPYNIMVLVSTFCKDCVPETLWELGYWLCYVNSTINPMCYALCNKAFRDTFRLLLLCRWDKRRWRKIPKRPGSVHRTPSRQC
Protocol: 2. Binding to muscarinic receptors
The affinities of the test compounds for muscarinic M1 -receptors were assessed using the [^3 H]pirenzepine binding assay, modified after Luthin et al. [^3 H]Pirenzepine and [^3 H]QNB binding to brain muscarinic cholinergic receptors. Molec. Pharmac. 1984, 26: 164-169. Briefly, the experiments were carried out on bovine striatal membranes expressing muscarinic M1 -receptors. After incubation with the test article and the proper radioligand and washing, bound radioactivity is determined with a […], using a commercial scintillation cocktail. The specific radioligand binding to each receptor is defined as the difference between total binding and nonspecific binding determined in the presence of an excess of unlabelled ligand. IC50 values (concentrations required to inhibit 50% of specific binding) were determined by non linear regression analysis of the competition curves.

[3] = tested on: physostigmine-induced lethality; test: Physostigmine-induced lethality test (sedative effects); assay type: in vivo; conditions: survivors of 10 mice 30 min after physostigmine 1.9 mg/kg s.c.; oral treatment 60 min before, mg/kg: Ketotifen 107, Nor-ketotifen 83, Example 2 94, Example 5 108, Astemizole 115
Protocol: 3. Studies on sedative effects
The physostigmine-induced lethality test used in these tests is a modification of the sedation test technique reported by COLLIER et al., in Br. J. Pharmac., 1968, 32: 295-310. In short, physostigmine (1.9 mg/kg s.c.) produces 100% lethality when given to grouped mice with 10 animals in each plastic cage (approx. 11×26×13 cm). Mice administered a sedating antihistamine prior to physostigmine are protected and survive. In the present study, test compounds were administered orally 60 minutes prior to physostigmine. The number of survivors were counted 30 minutes after physostigmine administration. The doses in the CNS test were half of the molecular weights of the test compounds, expressed in mg/kg body weight.

[4] = Sedative activity (general statement); assay type: in vivo; conditions: statement in words
[5] = inhibition of 50% of specific binding of [^3 H]pyrilamine, bovine cerebellum membranes, read-out: IC50
[6] = inhibition of 50% of specific [^3 H]pirenzepine binding, bovine striatal membranes, read-out: IC50

SMILES | IC50 [1, 5] | Survived [3] | IC50 [2, 6] | further results
OC1Cc2ccccc2C(=C2CCNCC2)c2ccsc21 (stereo not drawn) [10-OH-NORKETOTIFEN, 10-OH-norketotifen] | 113 nM |  |  | 
CN1[C@@H]2CC[C@H]1C[C@@H](OC(=O)C(CO)c1ccccc1)C2 (stereo partly drawn) [ATROPINE Sulfate] |  |  |  | IC50 [2]: 0.574 nM
COc1ccc(CCN2CCC(Nc3nc4ccccc4n3Cc3ccc(F)cc3)CC2)cc1 [Astemizole] |  | 1/10 |  | 
O=C1Cc2ccccc2C(=C2CCN(CCO)CC2)c2ccsc21 [Example 2] | 5.85 nM | 3/10 | 235 nM | 
O=C(O)COCCN1CCC(=C2c3ccccc3CC(=O)c3sccc32)CC1 [Example 5] | 69.5 nM | 0/10 | 880 nM | 
CN1CCC(=C2c3ccccc3CC(=O)c3sccc32)CC1 [Ketotifen, ketotifen] |  | 9/10 |  | sedative activity / sedative side effects [4]: profound sedative side effects
O=C1Cc2ccccc2C(=C2CCNCC2)c2ccsc21 [Norketotifen, 4-(4-piperidylidene)-9,10-dihydro-4 H-benzo[4,5]cyclo-hepta[1,2-] thiophene-10-one] |  | 3/10 | 261 nM | IC50 [1]: 43.6 nM
Cc1ccc(/C(=C\CN2CCCC2)c2ccccn2)cc1 [TRIPROLIDINE HCl] | 14.1 nM |  |  | 
